PubChem BioAssay (NCI)
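These data come from cells grown in 96-well plates and exposed to compound for 48 hours at five concentrations. Abbreviation: GI50, concentration required for 50% inhibition of growth. TGI: concentration producing complete growth inhibition.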

Columns and labels:
Test in all cases: NCI tumour cell line growth inhibition, 48 h; in the data active means GI50 below about 0.43 µM; inactive means the rest
RPMI-8226 leukemia = tested on: RPMI-8226 leukemia
SK-MEL-28 melanoma = tested on: SK-MEL-28 melanoma
HOP-92 NSCLC = tested on: HOP-92 NSCLC
HCC-2998 colon = tested on: HCC-2998 colon
KM20L2 colon = tested on: KM20L2 colon
SW-620 colon = tested on: SW-620 colon
K-562 leukemia = tested on: K-562 leukemia
DLD-1 colon = tested on: DLD-1 colon
HT29 colon = tested on: HT29 colon
M14 melanoma = tested on: M14 melanoma
LXFL 529 NSCLC = tested on: LXFL 529 NSCLC
HOP-18 NSCLC = tested on: HOP-18 NSCLC
MOLT-4 leukemia = tested on: MOLT-4 leukemia
SK-MEL-2 melanoma = tested on: SK-MEL-2 melanoma
SF-539 CNS = tested on: SF-539 CNS
OVCAR-3 ovarian = tested on: OVCAR-3 ovarian
UACC-257 melanoma = tested on: UACC-257 melanoma
SNB-75 CNS = tested on: SNB-75 CNS
UO-31 renal = tested on: UO-31 renal
NCI-H23 lung = tested on: NCI-H23 lung
SR leukemia = tested on: SR leukemia
DMS 114 small cell lung = tested on: DMS 114 small cell lung
DMS 273 small cell lung = tested on: DMS 273 small cell lung
M19-MEL melanoma = tested on: M19-MEL melanoma
IGROV1 ovarian = tested on: IGROV1 ovarian
SN12C renal = tested on: SN12C renal
UACC-62 melanoma = tested on: UACC-62 melanoma
HOP-62 NSCLC = tested on: HOP-62 NSCLC
SNB-19 CNS = tested on: SNB-19 CNS
CCRF-CEM leukemia = tested on: CCRF-CEM leukemia
RXF 393 renal = tested on: RXF 393 renal
786-0 renal = tested on: 786-0 renal
U251 CNS = tested on: U251 CNS
SNB-78 CNS = tested on: SNB-78 CNS
SK-OV-3 ovarian = tested on: SK-OV-3 ovarian
A549 NSCLC = tested on: A549 NSCLC
SF-295 CNS = tested on: SF-295 CNS
COLO 205 colon = tested on: COLO 205 colon
HL-60(TB) leukemia = tested on: HL-60(TB) leukemia
KM12 colon = tested on: KM12 colon
NCI-H460 lung = tested on: NCI-H460 lung
HCT-116 colon = tested on: HCT-116 colon
ACHN renal = tested on: ACHN renal
OVCAR-8 ovarian = tested on: OVCAR-8 ovarian
CAKI-1 renal = tested on: CAKI-1 renal
HCT-15 colon = tested on: HCT-15 colon
A498 renal = tested on: A498 renal
OVCAR-4 ovarian = tested on: OVCAR-4 ovarian
EKVX NSCLC = tested on: EKVX NSCLC
SK-MEL-5 melanoma = tested on: SK-MEL-5 melanoma
OVCAR-5 ovarian = tested on: OVCAR-5 ovarian
NCI-H522 lung = tested on: NCI-H522 lung
XF 498 CNS = tested on: XF 498 CNS
LOX IMVI melanoma = tested on: LOX IMVI melanoma
NCI-H226 lung = tested on: NCI-H226 lung
SF-268 CNS = tested on: SF-268 CNS
TK-10 renal = tested on: TK-10 renal
MALME-3M melanoma = tested on: MALME-3M melanoma

CCOC(=O)C1=C(C)N(Cc2ccccc2)C(=O)C1CC#N (stereo unspecified)
> 100 µM: TGI (RPMI-8226 leukemia) | TGI (SK-MEL-28 melanoma) | TGI (HCC-2998 colon) | TGI (KM20L2 colon) | TGI (SW-620 colon) | TGI (K-562 leukemia) | TGI (DLD-1 colon) | TGI (HT29 colon) | TGI (M14 melanoma) | TGI (LXFL 529 NSCLC) | TGI (HOP-18 NSCLC) | TGI (MOLT-4 leukemia) | TGI (SK-MEL-2 melanoma) | TGI (SF-539 CNS) | TGI (OVCAR-3 ovarian) | TGI (UACC-257 melanoma) | TGI (SNB-75 CNS) | TGI (UO-31 renal) | TGI (NCI-H23 lung) | TGI (SR leukemia) | TGI (DMS 114 small cell lung) | TGI (DMS 273 small cell lung) | TGI (M19-MEL melanoma) | TGI (IGROV1 ovarian) | TGI (SN12C renal) | TGI (UACC-62 melanoma) | TGI (HOP-62 NSCLC) | TGI (SNB-19 CNS) | TGI (CCRF-CEM leukemia) | TGI (RXF 393 renal) | TGI (786-0 renal) | TGI (U251 CNS) | TGI (SNB-78 CNS) | TGI (SK-OV-3 ovarian) | TGI (A549 NSCLC) | TGI (SF-295 CNS) | TGI (COLO 205 colon) | TGI (KM12 colon) | TGI (NCI-H460 lung) | TGI (HCT-116 colon) | TGI (ACHN renal) | TGI (OVCAR-8 ovarian) | TGI (CAKI-1 renal) | TGI (HCT-15 colon) | TGI (A498 renal) | TGI (OVCAR-4 ovarian) | TGI (EKVX NSCLC)
82.5 µM: TGI (HOP-92 NSCLC)
94.7 µM: TGI (HL-60(TB) leukemia)

CC1=NN2C(c3ccc(C)cc3)=CSC2=NC(C)(C)C1
> 100 µM: TGI (RPMI-8226 leukemia) | TGI (SK-MEL-5 melanoma) | TGI (SK-MEL-28 melanoma) | TGI (HOP-92 NSCLC) | TGI (HCC-2998 colon) | TGI (KM20L2 colon) | TGI (SW-620 colon) | TGI (K-562 leukemia) | TGI (DLD-1 colon) | TGI (HT29 colon) | TGI (M14 melanoma) | TGI (LXFL 529 NSCLC) | TGI (HOP-18 NSCLC) | TGI (MOLT-4 leukemia) | TGI (SK-MEL-2 melanoma) | TGI (SF-539 CNS) | TGI (OVCAR-5 ovarian) | TGI (OVCAR-3 ovarian) | TGI (UACC-257 melanoma) | TGI (NCI-H522 lung) | TGI (SNB-75 CNS) | TGI (UO-31 renal) | TGI (NCI-H23 lung) | TGI (DMS 114 small cell lung) | TGI (XF 498 CNS) | TGI (M19-MEL melanoma) | TGI (IGROV1 ovarian) | TGI (SN12C renal) | TGI (LOX IMVI melanoma) | TGI (UACC-62 melanoma) | TGI (NCI-H226 lung) | TGI (HOP-62 NSCLC) | TGI (SNB-19 CNS) | TGI (CCRF-CEM leukemia) | TGI (RXF 393 renal) | TGI (786-0 renal) | TGI (U251 CNS) | TGI (SNB-78 CNS) | TGI (SK-OV-3 ovarian) | TGI (SF-268 CNS) | TGI (A549 NSCLC) | TGI (SF-295 CNS) | TGI (COLO 205 colon) | TGI (HL-60(TB) leukemia) | TGI (KM12 colon) | TGI (NCI-H460 lung) | TGI (HCT-116 colon) | TGI (TK-10 renal) | TGI (ACHN renal) | TGI (OVCAR-8 ovarian) | TGI (HCT-15 colon) | TGI (A498 renal) | TGI (OVCAR-4 ovarian) | TGI (MALME-3M melanoma) | TGI (EKVX NSCLC)

COC(=O)C[CH2][Ge]([CH3])([CH3])[S]c1ccccc1
58.1 µM: TGI (RPMI-8226 leukemia)
62.3 µM: TGI (SF-295 CNS)
81.8 µM: TGI (SNB-19 CNS)
inactive: GI50 (RPMI-8226 leukemia) 22.4 µM | GI50 (SK-MEL-5 melanoma) 32.6 µM | GI50 (SK-MEL-28 melanoma) 36 µM | GI50 (HOP-92 NSCLC) 17.7 µM | GI50 (KM20L2 colon) 38.4 µM | GI50 (SW-620 colon) 16.7 µM | GI50 (K-562 leukemia) 34.8 µM | GI50 (DLD-1 colon) 20.3 µM | GI50 (HT29 colon) 44.2 µM | GI50 (M14 melanoma) 36.5 µM | GI50 (LXFL 529 NSCLC) 24 µM | GI50 (HOP-18 NSCLC) > 100 µM | GI50 (MOLT-4 leukemia) 8.31 µM | GI50 (SK-MEL-2 melanoma) 27.4 µM | GI50 (SF-539 CNS) 21.1 µM | GI50 (OVCAR-5 ovarian) 29.5 µM | GI50 (OVCAR-3 ovarian) 29.9 µM | GI50 (UACC-257 melanoma) 51.2 µM | GI50 (NCI-H522 lung) 10.8 µM | GI50 (SNB-75 CNS) 31.4 µM | GI50 (UO-31 renal) 15.6 µM | GI50 (NCI-H23 lung) 43.3 µM | GI50 (DMS 273 small cell lung) 42.6 µM | GI50 (M19-MEL melanoma) 36.8 µM | GI50 (IGROV1 ovarian) 1.25 µM | GI50 (SN12C renal) 18.3 µM | GI50 (LOX IMVI melanoma) 12.5 µM | GI50 (UACC-62 melanoma) 21.9 µM | GI50 (NCI-H226 lung) 27.4 µM | GI50 (HOP-62 NSCLC) 22.6 µM | GI50 (SNB-19 CNS) 32.2 µM | GI50 (CCRF-CEM leukemia) 5.27 µM | GI50 (RXF 393 renal) 4.08 µM | GI50 (786-0 renal) 21.6 µM | GI50 (U251 CNS) 17.7 µM | GI50 (SNB-78 CNS) 59.5 µM | GI50 (SK-OV-3 ovarian) 23.5 µM | GI50 (SF-268 CNS) 18.2 µM | GI50 (A549 NSCLC) 30.6 µM | GI50 (SF-295 CNS) 18 µM | GI50 (COLO 205 colon) 30.4 µM | GI50 (HL-60(TB) leukemia) 12.2 µM | GI50 (KM12 colon) 36 µM | GI50 (NCI-H460 lung) 16.9 µM | GI50 (HCT-116 colon) 33.4 µM | GI50 (TK-10 renal) 55.7 µM | GI50 (ACHN renal) 28.6 µM | GI50 (OVCAR-8 ovarian) 25.2 µM | GI50 (CAKI-1 renal) 40.2 µM | GI50 (HCT-15 colon) 15.4 µM | GI50 (OVCAR-4 ovarian) 25.3 µM | GI50 (MALME-3M melanoma) > 100 µM | GI50 (EKVX NSCLC) 28.2 µM
71.8 µM: TGI (SK-MEL-2 melanoma)
39.8 µM: TGI (SF-539 CNS)
45 µM: TGI (786-0 renal)
> 100 µM: TGI (SK-MEL-5 melanoma) | TGI (SK-MEL-28 melanoma) | TGI (HCC-2998 colon) | TGI (KM20L2 colon) | TGI (K-562 leukemia) | TGI (HT29 colon) | TGI (M14 melanoma) | TGI (HOP-18 NSCLC) | TGI (OVCAR-5 ovarian) | TGI (OVCAR-3 ovarian) | TGI (UACC-257 melanoma) | TGI (SNB-75 CNS) | TGI (NCI-H23 lung) | TGI (DMS 273 small cell lung) | TGI (M19-MEL melanoma) | TGI (NCI-H226 lung) | TGI (SNB-78 CNS) | TGI (A549 NSCLC) | TGI (KM12 colon) | TGI (HCT-116 colon) | TGI (TK-10 renal) | TGI (OVCAR-4 ovarian) | TGI (MALME-3M melanoma)
69.9 µM: TGI (COLO 205 colon)
42.9 µM: TGI (DLD-1 colon)
26.2 µM: TGI (LOX IMVI melanoma)
60.9 µM: TGI (UACC-62 melanoma)
83.8 µM: TGI (OVCAR-8 ovarian)
44.1 µM: TGI (U251 CNS)
23.3 µM: TGI (RXF 393 renal)
88.4 µM: TGI (ACHN renal)
65.4 µM: TGI (HOP-62 NSCLC)
33.5 µM: TGI (MOLT-4 leukemia)
67.8 µM: TGI (SK-OV-3 ovarian)
86.4 µM: TGI (EKVX NSCLC)
31.4 µM: TGI (SW-620 colon) | TGI (HL-60(TB) leukemia)
28.8 µM: TGI (HCT-15 colon)
30.6 µM: TGI (NCI-H460 lung)
79.1 µM: TGI (CAKI-1 renal)
33.1 µM: TGI (UO-31 renal)
4.72 µM: TGI (IGROV1 ovarian)
23.2 µM: TGI (NCI-H522 lung)
43.7 µM: TGI (SF-268 CNS)
81.1 µM: TGI (LXFL 529 NSCLC)
92.8 µM: TGI (HOP-92 NSCLC)
24.3 µM: TGI (CCRF-CEM leukemia)
37.2 µM: TGI (SN12C renal)
